Among the data in patent US7402579B2, “Quinobenzoxazine analogs and compositions” (Cylene Pharmaceuticals, Inc., priority 2005, dated 2008) are IC50 values, retold here.

Like-named read-outs stand apart in the source and are kept apart here. A value given as a limit tells only on which side of the number the result lay.

For one assay, the system named is HCT-116 cells. Kind of assay: MTS cell proliferation/cytotoxicity assay, HCT-116. The settings on record: Homo sapiens. Format: cell-based. Here is the method:
(§1) The antiproliferative effects of the present compounds may be tested using a cell proliferation and/or cytotoxicity assay, following protocols described below.
(§2) MTS assays. Antiproliferative effects of anticancer drugs are tested by the CellTiter 96 AQueous assay (Promega, Wis.), which is a colorimetric assay for determining the number of viable cells. (See, e.g., Wang, L., et al., Methods Cell Sci (1996) 18:249-255).
(§3) Generally, cells (2,000 to 5,000 cells/well) are seeded on 96 well flat bottom plates (Corning, N.Y.) in 100 μl of culture medium without any anticancer drug on day 0, and the culture medium is exchanged for that contained anticancer drugs at various concentrations on day 1. After incubation for 3 days under normal growth conditions (on day 4), the monolayers are washed once in PBS, and the medium is switched to 100 μl of PBS in each of the 96 well plate. After mixing MTS and PMS at the ratio of 20:1, 20 μl of MTS/PMS solution is added to each of the 96 well plate and incubated for 4 hours in a humidified atmosphere of 5% CO2 at 37° C. The absorbance was read at 490 nm using FLUOstar Galaxy 96 well plate reader (BMG Labtechnologies, Germany).

Another assay has as its system HeLa cells. Kind of assay: MTS cell proliferation/cytotoxicity assay, Hela. The assay is classed as cell-based. The settings on record: Homo sapiens. Here is the method:
as §1
Cell culture. Human cervical epithelial cells (HeLa cells) are obtained from American Type Culture Collection (Manassas, Va.). Cells are grown in Eagle's minimum essential medium (MEM, Hyclone, Utah) supplemented with 2 mM Glutamine, 0.1 mM nonessential amino acid, 1 mM Na Pyruvate, 1.5 g/L NaHCO3, 50 mg/L gentamicin, and 10% fetal bovine serum (Hyclone, USA) in a humidified atmosphere of 5% CO2 at 37° C.
as §2, §3

Assay [1] concerns the target c-Myc template DNA (quadruplex). Kind of assay: Quadruplex binding assay (STOP assay, Taq polymerase arrest, capillary electrophoresis). The assay is classed as biochemical. To be noted: concentration at which 50% of the DNA was arrested. The protocol:
Generally, a 5′-fluorescent-labeled (FAM) primer (P45, 15 nM) was mixed with template DNA (15 nM) in a Tris-HCL buffer (15 mM Tris, pH 7.5) containing 10 mM MgCl2, 0.1 mM EDTA and 0.1 mM mixed deoxynucleotide triphosphates (dNTP's). In one example, the FAM-P45 primer (5′-6FAM-[…] CAATT-3′) (SEQ ID NO. 17) and the c-Myc template DNA (5′-[…] […] […]-3′) (SEQ ID NO. 18) were synthesized and HPLC purified by Applied Biosystems. The mixture was denatured at 95° C. for 5 minutes and, after cooling down to room temperature, was incubated at 37° C. for 15 minutes.
After cooling down to room temperature, 1 mM […] and the test compound (various concentrations) were added and the mixture incubated for 15 minutes at room temperature. The primer extension was performed by adding 10 mM KCl and Taq DNA Polymerase (2.5 U/reaction, Promega) and incubating at 70° C. for 30 minutes. The reaction was stopped by adding 1 μl of the reaction mixture to 10 μl Hi-Di Formamide mixed and 0.25 μl LIZ120 size standard. Hi-Di Formamide and LIZ120 size standard were purchased from Applied Biosystems. The partially extended quadruplex arrest product was between 61 or 62 bases long and the full-length extended product was 99 bases long. The products were separated and analyzed using capillary electrophoresis. Capillary electrophoresis was performed using an ABI PRISM 3100-Avant Genetic Analyzer. The assay was performed using compounds described above, and μM concentrations reported in Table 1 (Tables 1A-1F) are concentrations at which 50% of the DNA was arrested in the assay (i.e., the ratio of shorter partially extended DNA (arrested DNA) to full-length extended DNA is 1:1).
Stop Assays. Stop assays are high throughput, first-pass screens for detecting drugs that bind to and stabilize the target G-quadruplex. Generally, DNA template oligonucleotide is created, which contains the nucleotide sequence of the “target” quadruplex against which drug screening is desired. A fluorescently labeled primer DNA is then annealed to the 3′ end of the template DNA. A DNA polymerase such as Taq polymerase is then introduced to synthesize a complementary strand of DNA by extending from the fluorescently labeled primer. When the progress of the Taq polymerase is unhindered, it synthesizes a full-length copy of the template. […] If, however, the test drug selectively binds to and stabilizes the quadruplex, the progress of polymerase arrests only at the quadruplex, and a characteristic “Stop Product” is synthesized.
These products are visualized by capillary electrophoresis.

Take `CN1CCCC1CCNC(=O)c1cn2c3c(c(N4CCC(c5cnccn5)C4)c(F)cc3c1=O)Oc1ccc(C(N)=O)cc1-2` (stereo not drawn): the IC50 came to 3600 nM in the assay on HCT-116 cells (Table 1A) and 11000 nM in the assay with HeLa cells (Table 1A).

Take `CN1CCCC1CCNC(=O)c1cn2c3c(c(N4CCC(c5cnccn5)C4)c(F)cc3c1=O)Oc1ccc(C#N)cc1-2` (stereo not drawn): the IC50 with HCT-116 cells (Table 1A) was determined as 400 nM; with HeLa cells (Table 1A), 1200 nM.

With `N#Cc1ccc2c(c1)-n1cc(C(=O)NCCN3CCCC3)c(=O)c3cc(F)c(N4CCC(c5cnccn5)C4)c(c31)O2` (stereo not drawn), the IC50 in assay [1] (Table 1A, read-out: STOP IC50) was found to be 5 µM; in the assay on HCT-116 cells (Table 1A), 31 nM; in the assay on HeLa cells (Table 1A), 210 nM.

In the case of `N#Cc1ccc2c(c1)-n1cc(C(=O)NCCN3CCOCC3)c(=O)c3cc(F)c(N4CCC(N)C4)c(c31)O2` (stereo not drawn), the IC50 in the assay on HCT-116 cells (Table 1A) amounted to 400 nM; with HeLa cells (Table 1A), 680 nM.

`CC(C)N1CCN(c2c(F)cc3c(=O)c(C(=O)NCCN4CCCC4)cn4c3c2Oc2ccc(C#N)cc2-4)CC1`: the IC50 in assay [1] (Table 1A, read-out: STOP IC50) is 10 µM; with HCT-116 cells (Table 1A) it was 30 nM; in the assay with HeLa cells (Table 1A), 40 nM.

As to `O=C(NCCN1CCCC1)c1cn2c3c(cc(SCCc4cnccn4)cc3c1=O)Oc1cc3ccccc3cc1-2`, the IC50 turned out to be 3.9 µM in assay [1] (Table 1B, read-out: STOP IC50); 2800 nM in the assay with HCT-116 cells (Table 1B); 280 nM in the assay on HeLa cells (Table 1B).

`CN1CCCC1CCNC(=O)c1cn2c3c(cc(SCCc4cnccn4)cc3c1=O)Oc1cc3ccccc3cc1-2` (stereo not drawn): the IC50 in assay [1] (Table 1B, read-out: STOP IC50) was found to be 3.4 µM; in the assay with HCT-116 cells (Table 1B) it was 10000 nM; with HeLa cells (Table 1B), 1800 nM.

Regarding `CN1CCCC1CCNC(=O)c1cn2c3c(cc(SCc4ccccc4)cc3c1=O)Oc1cc3ccccc3cc1-2` (stereo not drawn), the IC50 in assay [1] (Table 1B, read-out: STOP IC50) came to 14 µM; in the assay with HCT-116 cells (Table 1B), 3900 nM; in the assay on HeLa cells (Table 1B) it was 5200 nM.

With `Cc1cc(CSc2cc3c4c(c2)c(=O)c(C(=O)NCCC2CCCN2C)cn4-c2cc4ccccc4cc2O3)no1` (stereo not drawn), the IC50 in assay [1] (Table 1B, read-out: STOP IC50) came to 5.4 µM; in the assay on HCT-116 cells (Table 1B), 2900 nM; with HeLa cells (Table 1B) it was 2300 nM.

For `CN1CCCC1CCNC(=O)c1cn2c3c(cc(SCc4ccccn4)cc3c1=O)Oc1cc3ccccc3cc1-2` (stereo not drawn), the IC50 in assay [1] (Table 1B, read-out: STOP IC50) was determined as 3.8 µM; in the assay with HCT-116 cells (Table 1B), 3100 nM; with HeLa cells (Table 1B) it was 2500 nM.

Consider `CN1CCCC1CCNC(=O)c1cn2c3c(cc(SCCc4cnccn4)cc3c1=O)Oc1ccccc1-2` (stereo not drawn), for which the IC50 amounted to 10 µM in assay [1] (Table 1B, read-out: STOP IC50); 3800 nM in the assay with HCT-116 cells (Table 1B); 3000 nM with HeLa cells (Table 1B).

As for `CN1CCCC1CCNC(=O)c1cn2c3c(cc(SCc4ccncc4)cc3c1=O)Oc1cc3ccccc3cc1-2` (stereo not drawn), the IC50 in assay [1] (Table 1B, read-out: STOP IC50) came to 2.9 µM; in the assay on HCT-116 cells (Table 1B), 4200 nM; in the assay on HeLa cells (Table 1B), 4100 nM.

As to `CC(=O)N1CCN(c2cc3c(=O)c(C(=O)NCCN4CCCC4)cn4c3c(c2F)Oc2cc(Cl)ccc2-4)CC1`, the IC50 in assay [1] (Table 1C, read-out: STOP IC50) came out at 6 µM.

As to `CC1CCN(C(=O)c2cn3c4c(c(NCCN5CCOCC5)c(F)cc4c2=O)Oc2ccccc2-3)CC1` [Example 55], the IC50 in assay [1] (Table 1E, read-out: STOP Data) is above 15 µM.

Regarding `CN1CCCC1CCNC(=O)c1cn2c3c(c(N4CCC(c5cnccn5)C4)c(F)cc3c1=O)Oc1ccccc1-2` (stereo not drawn) [Example 81], the IC50 in assay [1] (Table 1E, read-out: STOP Data) was 5.7 µM.
